Data reported in patent US7410955B2, “Therapeutic use of agonist ligands specific to G2A receptor” (Biosynergen, Inc., priority 2002, dated 2008).

Experiments:
CLP-induced Sepsis model = assay: CLP-induced sepsis model; assay type: in vivo, ICR mice
Experimental: After ICR mice (25-30 g in body weight; MJ Ltd.) had been anesthetized with pentobarbital, right abdominal sites of the mice were dissected in a length of 1 cm to expose their cecum, and sites below the ileocecal valve were ligated. And then, after 4˜6 punctures had been created on the cecum with 21-gauge needle, the abdomen was sutured again to cause peritonitis, thereby inducing Sepsis.
After the peritoneal cavity of mice had been exposed, it was washed with sterilized saline (2 ml). The resultant solution was diluted with HBSS (Sigma Chemical Co., USA) in a ratio of 1/1000, and then 10 μl of each diluted solution was spread on Trypticase Soy agar (BBL, Becton Dickinson Co., USA) plates. After overnight incubation at 37° C., colony forming unit (CFU) was measured.
7 mice were administered with 1-stearoyl LPC (Sigma Chemical Co., USA) dissolved in 1% BSA solution containing no fatty acid in an amount of 10 mg/kg by subcutaneous injection 2 and 14 hours after the CLP surgery, respectively (experimental group). The remaining 7 mice were administered with 1% BSA solution containing no fatty acid of the same amount as above in the same manner (control group). The numbers of intraperitoneal E. coli cells in the ICR mice of experimental and control groups were measured in accordance with Reference Example 3, 24 hours after the CLP surgery.
Each 10 ICR mice were intraperitoneally administered with 1-stearoyl LPC (Sigma Chemical Co., USA) dissolved in 1% BSA solution containing no fatty acid in amounts of 5, 10, and 20 mg/kg, respectively, four times at intervals of 12 hours, 2 hours after the CLP surgery (experimental group-1, -2 and -3). The remaining 10 ICR mice were administered only with 1% BSA solution containing no fatty acid (control group). And then, the survival rates of mice in experimental- and control groups were investigated over the lapse of time.
10 mice for the experimental group were intraperitoneally administered with 1-stearoyl LPC (Sigma Chemical Co., USA) dissolved in 1% BSA solution containing no fatty acid in an amount of 10 mg/kg, four times at intervals of 12 hours, 10 hours after the CLP surgery. The remaining 10 mice for the control group were administered only with 1% BSA solution containing no fatty acid. Thereafter, the survival rates of ICR mice in experimental- and control groups were investigated over the lapse of time.
CLP-induced Sepsis model mice were subcutaneously injected with SPC, instead of 1-stearoyl LPC, in dosages of 3 mg/kg and 30 mg/kg four times at intervals of 12 hours, 2 hours after the CLP surgery, respectively. The survival rates of mice were investigated.

neutrophils = assay: Bactericidal activity of neutrophils from bacteria-induced sepsis model mice; assay type: cell-based; conditions: 30 μM 1-stearoyl LPC for 1 hour after E. coli ingestion, 1 hour killing time; vs PBS control
Experimental: ICR mice (25-30 g in body weight; MJ Ltd.) were intraperitoneally injected with alive 10^8 cells/ml E. coli (DH5a) that were suspended in 0.5 ml of PBS (phosphate-buffered saline) to cause peritonitis, thereby inducing sepsis.
The isolated neutrophils were adhered to the cover slip coated with poly-L-Lysine (0.01%) in a cell incubator maintained at 37° C., at a cell concentration of 10^6 cells/ml for 1 hour. Thereafter, E. coli was added thereto in a concentration of 10^6 cells/ml and cultured for 1 hour. E. coli cells that were not ingested by neutrophils were removed by washing the cover slip with PBS buffer. The cover slip was then treated with […] 1-stearoyl LPC, and further cultured for another 1 hour. In this stage, the cover slip of the control group was treated with PBS buffer, instead of LPC. Thereafter, after the exchange of a new RPMI-1640 medium, they were further cultured for 1 hour to give killing time. Then, the neutrophils were broken using Triton X-100 (0.05%), and accordingly E. coli cells were recovered. The recovered E. coli cells were spread onto a plate and cultured in an incubator maintained at 37° C. The number of E. coli cells that had grown on the medium was counted and subjected to statistical analysis. […]

In the case of `CCCCCCCCCCCCCCCCCC(=O)OCC(O)COP(=O)([O-])OCC[N+](C)(C)C` (stereo not shown) [1-stearoyl LPC, 1-stearoyl (18:0) lysophosphatidylcholine], the “therapeutic effect (survival rate) when septicemia already developed” value (CLP-induced Sepsis model; 10 mg/kg intraperitoneal, four times at intervals of 12 hours, starting 10 hours after CLP surgery) is reported as “excellent therapeutic effect”, the “number of intraperitoneal E. coli cells” value (CLP-induced Sepsis model; 10 mg/kg subcutaneous, 2 and 14 hours after CLP surgery, 24 hours after surgery, P<0.01) is reported as “remarkably decreased” and the survival rate (CLP-induced Sepsis model; 5, 10 and 20 mg/kg intraperitoneal, four times at intervals of 12 hours, starting 2 hours after CLP surgery) is reported as “much higher than that of the mice in control group”. For the same compound, the “number of alive E. coli recovered from neutrophils” value (neutrophils) was “significantly decreased”.
